Test results taken from patent publication US20130096370A1, “COMPOSITIONS AND SYSTEMS FOR THE REGULATION OF GENES” (priority 2002, published 2013).

Tested on: p53 in MCF-7 breast cancer cells
Test: Down modulation of endogenous p53 in MCF-7 cells by dox-inducible siRNA lentivectors (Western blot)
Type: cell-based
Settings: dually transduced MCF-7 cells, 5 days in dox, FIG. 7B
Method: To analyze the regulation of GFP a Hela cell clone carrying a single copy of the WPXLGFP provirus (Hela-GFP) was used. For transduction, Hela-GFP, MCF-7 or Hela cells were plated on 24-well plate (20×10^4 cells/well) and after 16 hrs medium containing recombinant lentivectors was added. Following 16 hrs of incubation the cells were washed, split and doxycycline was added to half of the transduced cells at a final concentration of 5 μg/ml. Five days later the cells were harvested and analyzed by FACS.
Cell extracts were prepared in RIPA lysis buffer (25 mM Tris pH 7.5, 1% Triton X-100, 0.5% sodium deoxycholate, 5 mM EDTA, 150 mM NaCl) containing a cocktail of protease inhibitors (Sigma). The protein samples (10 μg) were separated on 4-20% gradient PAGE-SDS gel, electroblotted to polyvinylidene fluoride membranes (Perkin Elmer) and exposed to antibodies against p53 (Santa Cruz Biotechnology), Lamin A/C (Santa Cruz Biotechnology), GFP (Clontech) and actin (Calbiochem). Antibodies conjugated with horseradish peroxidase (Amersham) and enhanced chemiluminescence (ECL; Amersham) was used for detection.

C[C@H]1c2cccc(O)c2C(=O)C2=C(O)[C@]3(O)C(=O)C(C(N)=O)=C(O)[C@@H](N(C)C)[C@@H]3[C@@H](O)[C@@H]21 [doxycycline]
dox concentration at which full-blown p53 suppression was achieved: 0.25 µg/mL | dox concentration at which p53 downregulation was already apparent: 0.004 µg/mL
